Laboratory results as given in patent US20100221709A1, “METHODS FOR IDENTIFYING AGENTS THAT MODULATE APOPTOSIS IN CELLS THAT OVER-EXPRESS A BCL-2 FAMILY MEMBER PROTEIN” (priority 2005, published 2010).
Values joined by “and” are separate entries in the source; they are usually repeats but may differ in a detail not shown here. Equal values may be shown once.

Columns and labels:
[1] = test system: TAMH cells over-expressing Bcl-xL A142L; assay: STS and antimycin toxicity, Alamar Blue viability; format: cell-based, murine; conditions: for LD50: 24 h treatment
Description: (§1) TAMH cells were transfected with DNA encoding each of the mutant Bcl-xL proteins by lipofection (See Example 1 for method). For analysis of Bcl-xL expression, 20 μg of cell protein was separated by 20% SDS-PAGE and transferred to nitrocellulose membranes. Immunodetection of Bcl-xL was carried out using rabbit anti-Bcl-xL antibody and Protein A/horseradish peroxidase conjugate, followed by chemiluminescent detection. Cells were grown to about 80% confluence in 96-well plates followed by addition of 100 μl of 2×AA1 or staurosporine (STS) solution in complete medium. STS is a natural product originally isolated from the bacterium Streptomyces and found to be capable of inducing apoptosis in certain cells and which induction of apoptosis could be blocked by the expression of a Bcl-2 family protein. Cell viability was determined spectrophotometrically after 24 h treatment as the ratio of reduced and oxidized Alamar Blue (BIOSOURCE) at 570 nm and 600 nm, respectively. All results were normalized against DMSO controls. LD50 values were calculated by non-linear regression analysis using Prism software (Graphpad).

[2] = test system: TAMH cells over-expressing Bcl-xL E92L; assay: STS and antimycin toxicity, Alamar Blue viability; format: cell-based, murine; conditions: 24 h treatment
Description: as §1

[3] = test system: TAMH cells over-expressing Bcl-xL F146L; assay: STS and antimycin toxicity, Alamar Blue viability; format: cell-based, murine; conditions: for LD50: 24 h treatment
Description: as §1

[4] = test system: TAMH cells over-expressing Bcl-xL F97W; assay: STS and antimycin toxicity, Alamar Blue viability; format: cell-based, murine; conditions: 24 h treatment
Description: as §1

[5] = test system: TAMH cells over-expressing Bcl-xL WT; assay: STS and antimycin toxicity, Alamar Blue viability; format: cell-based, murine; conditions: 24 h treatment
Description: as §1

Bcl-xL(ΔC) A142L = target: T1, Bcl-xL(ΔC) A142L (Homo sapiens, UniProt Q07817, A142L); assay: Fluorescence anisotropy binding
T1 construct: inferred from pET22b(+) NdeI/XhoI cloning and nickel-NTA purification) (C); made in house; host or cells: Escherichia coli BL21(DE3) carrying pUB520
Description: (§2) A pET22b (Novagen) vector coding for Bcl-xL(ΔC), a mutant Bcl-xL protein without the COOH terminal region, was transformed into Escherichia coli BL21(DE3) cells that carried pUB520 (encoding human Arg tRNA) and grown to an A600 of 0.6. Protein expression was induced with 0.1 mM isopropyl β-D-thiogalactoside at 30° C. The cells were resuspended 1:5 (w/v) in PEB buffer (50 mM Tris, pH 8.0, 200 mM NaCl, 0.2 mM phenylmethylsulfonyl fluoride, 5 mM β-mercaptoethanol, 5 mM imidazole, and 1% (v/v) glycerol), and stirred for 20 min at 4° C. Cells were disrupted by pulse sonication, and the soluble fraction was loaded onto a nickel-nitrilotriacetic acid column (Qiagen) equilibrated with PEB buffer. The column was washed with 40 mM imidazole, eluted with 200 mM imidazole, and the protein fractions were pooled and dialyzed (50 mM Tris, pH 8.0, 200 mM NaCl, 0.2 mM phenylmethylsulfonyl fluoride) at 4° C. overnight. The dialyzed protein was concentrated to 10 mg/ml and fractionated on a Superdex 75 gel filtration column (Amersham Biosciences). The fractions containing Bcl-xL(ΔC) protein were pooled, exchanged into low-salt buffer (same as for previous dialysis buffer, except 50 mM NaCl), and loaded onto a MonoQ anion exchange column (Amersham Biosciences). Protein was eluted from the column with increasing NaCl gradient, pooled and concentrated.
(§3) All reagents were prepared in 0.2 μm-filtered PBS with fresh 1 mM DTT. […] Slit widths were set at 10 nm for both excitation and emission.

Bcl-xL(ΔC) F146L = target: T2, Bcl-xL(ΔC) F146L (Homo sapiens, UniProt Q07817, F146L); assay: Fluorescence anisotropy binding
T2 construct: inferred from pET22b(+) NdeI/XhoI cloning and nickel-NTA purification) (C); made in house; host or cells: Escherichia coli BL21(DE3) carrying pUB520
Description: as §2, §3

Bcl-xL(ΔC) F97W = target: T3, Bcl-xL(ΔC) F97W (Homo sapiens, UniProt Q07817, F97W); assay: Fluorescence anisotropy binding
T3 construct: inferred from pET22b(+) NdeI/XhoI cloning and nickel-NTA purification) (C); made in house; host or cells: Escherichia coli BL21(DE3) carrying pUB520
Description: as §2, §3

Bcl-xL(ΔC) WT = target: T4, Bcl-xL(ΔC) WT (Homo sapiens, UniProt Q07817); assay: Pore assay, calcein release from large unilamellar vesicles; format: biochemical
T4 construct: inferred from pET22b(+) NdeI/XhoI cloning and nickel-NTA purification) (C); made in house; host or cells: Escherichia coli BL21(DE3) carrying pUB520
Description: Large unilamellar vesicles composed of 60% dioleoylphophatidylcholine and 40% dioleoylphosphatidylglycerol were prepared by the extrusion method of Mayer et al., supra. Lipid stocks, in chloroform, were mixed and dried under a stream of nitrogen gas. The lipid was resuspended by vortexing for 30 min in a solution of 40 mM calcein (Molecular Probes), 25 mM KCl, and 10 mM KOAc, pH 5.0. After 10 freeze-thaw cycles, the lipid suspension was extruded through two 0.1 μm pore diameter Nucleopore filters. Non-entrapped dye was removed by passage over a Sephadex G10 column (Amersham Biosciences). Lipid concentration was measured using the ammonium ferrothiocyanate method (Stewart, Anal. Biochem. 104:10-14, 1980).
For pore assays, recombinant truncated Bcl-2 family protein or mutant protein (Bcl-xL(ΔC)) (500 nM) was added to large unilamellar vesicles (60 μM lipid concentration) in 100 mM KCl, 10 mM KOAc, pH 5.0, and fluorescence measured (490 nm excitation, 520 nm emission) with a Fluoromax-3 spectrophotometer. Peptides of the BH3 domain were incubated with the Bcl-xL(ΔC) 5 min prior to mixing with liposomes. AA1 was added to liposomes 1 min before adding the Bcl-xL(ΔC) protein. Samples for kinetic assays were analyzed in a thermostatted cuvette at 37° C. with constant stirring. Dose responses were measured in black quartz microplates (Hellma) at room temperature. Calcein release was expressed as percentage of maximum release with detergent lysis (0.1% Triton X-100).

RPMI-8226 cells [6] = assay: GI50 assay, MTT cell proliferation; format: cell-based, human
Description: RPMI-8226 cells were grown in 96 well plates for 24 h prior to addition of 2-methoxy antimycins. Antimycin stocks in dimethyl sulfoxide (DMSO) were serially diluted in RPMI. Cells were incubated for 48 h with compounds at final compound concentrations ranging from 10^−4 to 10^−8 M. MTT cell proliferation assays were performed in quadruplicate and percent growth inhibitions were calculated as (A570 (control cells)-A570 (treated cells))/A570 (control cells). GI50 was extrapolated from semi-log plots of the dose response for each compound. […] After 72 h drug exposures, 1 μCi/ml [^3H]-thymidine was added to wells. Cells were incubated for an additional 24 h, and then transferred to GF/C filter plates (Packard) using a plate washer. Filters were dried, added to scintillant, and counted in a TopCount® scintillation counter (Packard). Drug response is expressed as the percentage of vehicle-treated controls, and each value shown is the average of three determinations.

[7] = test system: TAMH vector-only control cells; assay: STS toxicity, Alamar Blue viability; format: cell-based, murine; conditions: 24 h treatment
Description: as §1

RPMI-8226 cells [8] = assay: Combined cytotoxicity with standard anticancer agents; format: cell-based, human; conditions: suboptimal combinations, 24 h
Description: Concentrations of standard chemotherapeutic agents were adjusted to achieve <20% cell death as single agents over 24 h treatments. Cells treated with 20 μg/ml 2-OMe antimycin A1 and indicated concentrations of etoposide, melphalan or daunorubicin. Predicted viability at 24 h is derived from additive cytotoxicity of single agents (open symbols). Observed viability for combination (closed symbols). Each symbol represents separate experiment. Viabilities (PI-negative) are normalized to untreated cells.

NOD/SCID mice = assay: In vivo toxicity, intravenous dosing
Description: (§4) 2-OMe antimycin A1 was synthesized from antimycin A1 (Sigma) and dissolved in phosphate-buffered saline with 20% Cremaphor, 25% ethanol (3 mg/ml) for parenteral administration by tail vein injection in a total volume of 100 μl. Control mice received injections of Cremaphor/ethanol vehicle.
(§5) To determine whether 2-OMeAA1 has anti-tumor activity in vivo, a total of 12 NOD/SCID mice in three experiments were inoculated with 3×10^7 RPMI-8226 human myeloma cells by interscapular subcutaneous injection. […] In total, six mice received three intravenous doses of 10 mg/kg 2-OMeAA1 on alternate days starting on day 6. Six control mice received injections of Cremaphor/ethanol vehicle without drug.

[9] = test system: RPMI-8226 human myeloma cells; assay: RPMI-8226 myeloma tumor xenografts
Description: Six to nine-week old Nod/Les2 Scid/J mice were inoculated with 3×10^7 RPMI-8226 cells by interscapular subcutaneous injection. Mice were maintained under specific pathogen-free conditions. Palpable tumor nodules were measured in two dimensions with calipers and tumor volumes calculated in mm^3 as (length×width^2)/2. Blood samples were collected by retro-orbital bleed for human light chain measurements by ELISA with lambda-specific antibody and horseradish peroxidase detection (BD Biosciences). Animals were sacrificed by halothane inhalation, and histologic examination of tumors and internal organs was performed. All experiments were approved by the Fred Hutchinson Cancer Research Center Institutional Animal Care and Use Committee.
as §4
Tissues were fixed in 10% buffered formalin, embedded in paraffin, sectioned and stained with hematoxylin and eosin. TUNEL staining was performed using 0.3 units/ml terminal deoxynucleotidyl transferase and biotinylated dATP with development by avidin-biotin peroxidase method. Bcl-xL immunohistochemistry was performed using anti-Bcl-xL antibody (BD Biosciences) followed by biotinylated secondary antibody and peroxidase-labeled ABC reagent (Vector, Burlingame Calif.).
as §5

[10] = LC/MS analyses of plasma after administration; format: in vivo, mice; conditions: preliminary LC/MS analyses

T4 sequence (Q07817 1-211 limits assumed, stated change not applied): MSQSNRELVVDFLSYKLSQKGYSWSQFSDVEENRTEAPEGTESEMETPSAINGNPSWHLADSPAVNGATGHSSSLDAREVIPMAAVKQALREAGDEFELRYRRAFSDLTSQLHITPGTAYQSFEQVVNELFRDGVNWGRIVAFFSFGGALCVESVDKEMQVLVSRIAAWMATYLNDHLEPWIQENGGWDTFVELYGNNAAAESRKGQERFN
T1 sequence (Q07817 1-211 A142L limits assumed): as the sequence (Q07817 1-211 limits assumed, stated change not applied) above, with A142L counted along it
T2 sequence (Q07817 1-211 F146L limits assumed): as the sequence (Q07817 1-211 limits assumed, stated change not applied) above, with F146L counted along it
T3 sequence (Q07817 1-211 F97W limits assumed): as the sequence (Q07817 1-211 limits assumed, stated change not applied) above, with F97W counted along it

CCCCCC[C@H]1C(=O)O[C@H](C)[C@H](NC(=O)c2cccc(NC=O)c2O)C(=O)O[C@@H](C)[C@@H]1OC(=O)CC(C)C [AA1, antimycin A1]
sensitivity of mutant cells to antimycin A1 [1]: completely insensitive
LD50 [1]: >10 µM
LD50 [2]: 1.72 ± 0.34^2 μM
LD50 ([2]; listed as antimycin A1): 1.72 ± 0.3 µM
sensitivity of mutant cells to antimycin A1 [3]: completely insensitive
LD50 [3]: >10 µM
LD50 [4]: 5.12 ± 0.94^2 μM
LD50 ([4]; listed as antimycin A1): 5.12 ± 0.9 µM
LD50 [5]: 0.47 ± 0.07 µM
LD50 ([5]; listed as antimycin A1): 0.47 µM
fold increase in Kd of AA1 binding compared with Bcl-xL wt(ΔC) (Bcl-xL(ΔC) A142L): 20 fold
fold decrease in AA1 affinity (Bcl-xL(ΔC) F146L): ~10 fold
fold increase in Kd of AA1 binding compared with Bcl-xL wt(ΔC) (Bcl-xL(ΔC) F97W): 8 fold
effect on Bcl-xL pore-forming activity (FIG. 3A) (Bcl-xL(ΔC) WT): inhibited

2-OMe antimycin A5
activity (GI50) relative to 2-OMe antimycin A1, A2 and A3 (RPMI-8226 cells [6]): approximately ⅓

CN[C@@H]1C[C@H]2O[C@@](C)([C@@H]1OC)n1c3ccccc3c3c4c(c5c6ccccc6n2c5c31)C(=O)NC4 [STS, staurosporine]
LD50 [1]: 0.49 ± 0.11 µM
LD50 [2]: 0.52 ± 0.12 µM
LD50 [3]: 0.38 ± 0.04 µM
LD50 [4]: 0.34 ± 0.10 µM
LD50 [5]: 0.58 ± 0.1 µM and 0.58 ± 0.14 µM
LD50 [7]: 0.11 ± 0.01 µM

CCCCCC[C@H]1C(=O)O[C@H](C)[C@H](NC(=O)c2cccc(NC=O)c2OC)C(=O)O[C@@H](C)[C@@H]1OC(=O)CC(C)C [2-OMeAA1, 2-OMe antimycin A1]
effect on Bcl-xL pore-forming activity (FIG. 3A) (Bcl-xL(ΔC) WT): inhibited
combined killing with etoposide or melphalan (RPMI-8226 cells [8]): Supra-additive killing
histologic examination of normal tissues (NOD/SCID mice; 10 mg/kg): No cellular injury or inflammation
LD50 dose (NOD/SCID mice; schedule of 3 intravenous doses on alternate days): 20 mg/kg
mice survived without apparent toxicity (NOD/SCID mice; three intravenous doses at 10 mg/kg on alternate days): 6/6
adverse effects in treated mice ([9]; 10 mg/kg): No adverse effects
average reduction of serum levels of human light chain ([9]; 10 mg/kg i.v., after the third injection): 87%
mice with regression of tumor nodules, second round ([9]; 10 mg/kg on alternate days, days 26 to 31): six of six
apoptosis in tumor sections ([9]; 24 and 48 h after a single 10 mg/kg intravenous treatment): widespread apoptosis
mice with tumor regression during treatment ([9]; three i.v. doses of 10 mg/kg on alternate days from day 6): Five of six
reformation of antimycin A1 in plasma [10]: have not demonstrated reformation of antimycin A1
